Measurements: patent US9125913B2, “Bcl-2-selective apoptosis-inducing agents for the treatment of cancer and immune diseases” (AbbVie Inc., priority 2008, dated 2015)

Tests used:
FL5.12/Bcl-2 cells = assay: FL5.12/Bcl-2 cell viability assay; assay type: cell-based, murine; conditions: ratio of canine platelet EC50 to FL5.12/Bcl-2 EC50
Source text: FL5.12 is an IL-3 dependent prolymphocytic murine cell line that undergoes apoptosis upon IL-3 withdrawal as a result of the upregulation of pro-apoptotic Bcl-2 proteins such as Bim and Puma. Stable overexpression of anti-apoptotic Bcl-2 protein (FL5.12/Bcl-2) protects against apoptosis induced by IL-3 withdrawal by sequestration of Bim and Puma. […] The ability of compounds to kill FL5.12/Bcl-2 cells upon IL-3 withdrawal is a direct measure of the compounds' ability to inhibit anti-apoptotic Bcl-2 protein function.
Wild type FL5.12/Bcl-2 overexpressing stable transfectants were cultured in RPMI-1640 supplemented with 2 mM L-glutamine, 10% FBS, 1 mM sodium pyruvate, 2 mM HEPES, 1% penicillin/streptomycin (Invitrogen), 57 μM β-ME, and 10% WEHI-3B conditioned medium (source of IL-3) and maintained at 37° C. containing 5% CO2. 1×10^6 cells/ml were washed 1×PBS and resuspended in medium not supplemented with 10% WEHI-3B for 48 hrs prior to cytotoxicity assays. Cells were then treated for an additional 24 hrs in the presence of various concentrations of the indicated compounds. Cell viability was assessed by CellTitre Glo assay (Promega Corp.) according to the manufacturer's recommendations.

GST-Bcl-2 = assay: TR-FRET binding assay, Bcl-2; conditions: TR-FRET Ki values
How it was run: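 Compounds serially diluted in DMSO from 50 μM (2× starting concentration, 10% DMSO), mixed with GST-tagged protein, F-Bak peptide probe and Tb-labeled antibody, incubated 3 h at room temperature.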

SMILES | Selectivity Ratio (Platelet EC50/FL5.12/Bcl-2 EC50) (FL5.12/Bcl-2 cells) | Binding selectivity ratio (Bcl-XL Ki/Bcl-2 Ki) (GST-Bcl-2)
CN1CCC(CNc2ccc(S(=O)(=O)NC(=O)c3ccc(N4CCN(Cc5ccccc5-c5ccc(Cl)cc5)CC4)cc3Oc3ccccc3)cc2[N+](=O)[O-])CC1 [Example 88, 4-{4-[(4′-chloro-1,1′-biphenyl-2-yl)methyl]piperazin-1-yl}-N-[(4-{[(1-methylpiperidin-4-yl)methyl]amino}-3-nitrophenyl)sulfonyl]-2-phenoxybenzamide] | 613 | 67.3
CN1CCC(Nc2ccc(S(=O)(=O)NC(=O)c3ccc(N4CCN(Cc5ccccc5-c5ccc(Cl)cc5)CC4)cc3Oc3ccccc3)cc2[N+](=O)[O-])CC1 [Example 89, 4-{4-[(4′-chloro-1,1′-biphenyl-2-yl)methyl]piperazin-1-yl}-N-({4-[(1-methylpiperidin-4-yl)amino]-3-nitrophenyl}sulfonyl)-2-phenoxybenzamide] | 495 | 57.8
CN(C)CCCOc1ccc(S(=O)(=O)NC(=O)c2ccc(N3CCN(Cc4ccccc4-c4ccc(Cl)cc4)CC3)cc2Oc2ccccc2)cc1[N+](=O)[O-] [Example 94, 4-{4-[(4′-chloro-1,1′-biphenyl-2-yl)methyl]piperazin-1-yl}-N-({4-[3-(dimethylamino)propoxy]-3-nitrophenyl}sulfonyl)-2-phenoxybenzamide] | 590 | 33.1
CN1CCN(CCCNc2ccc(S(=O)(=O)NC(=O)c3ccc(N4CCN(CC5=C(c6ccc(Cl)cc6)CC(C)(C)CC5)CC4)cc3Oc3ccc4[nH]ccc4c3)cc2[N+](=O)[O-])CC1 [Example 96, 4-(4-{[2-(4-chlorophenyl)-4,4-dimethylcyclohex-1-en-1-yl]methyl}piperazin-1-yl)-2-(1H-indol-5-yloxy)-N-[(4-{[3-(4-methylpiperazin-1-yl)propyl]amino}-3-nitrophenyl)sulfonyl]benzamide] | 2043 | 186.8
CC1(C)CCC(CN2CCN(c3ccc(C(=O)NS(=O)(=O)c4ccc(NCCCN5CCCC5)c([N+](=O)[O-])c4)c(Oc4ccc5[nH]ccc5c4)c3)CC2)=C(c2ccc(Cl)cc2)C1 [Example 97, 4-(4-{[2-(4-chlorophenyl)-4,4-dimethylcyclohex-1-en-1-yl]methyl}piperazin-1-yl)-2-(1H-indol-5-yloxy)-N-({3-nitro-4-[(3-pyrrolidin-1-ylpropyl)amino]phenyl}sulfonyl)benzamide] | 1052 | 96.7
CN1CCC(Nc2ccc(S(=O)(=O)NC(=O)c3ccc(N4CCN(CC5=C(c6ccc(Cl)cc6)CC(C)(C)CC5)CC4)cc3Oc3ccc4[nH]ccc4c3)cc2[N+](=O)[O-])CC1 [Example 98, 4-(4-{[2-(4-chlorophenyl)-4,4-dimethylcyclohex-1-en-1-yl]methyl}piperazin-1-yl)-2-(1H-indol-5-yloxy)-N-({4-[(1-methylpiperidin-4-yl)amino]-3-nitrophenyl}sulfonyl)benzamide] | 4849 | >50769.2
CN1CCN(CCCNc2ccc(S(=O)(=O)NC(=O)c3ccc(N4CCN(CC5=C(c6ccc(Cl)cc6)CC(C)(C)CC5)CC4)cc3Oc3cccc4[nH]ccc34)cc2[N+](=O)[O-])CC1 [Example 99, 4-(4-{[2-(4-chlorophenyl)-4,4-dimethylcyclohex-1-en-1-yl]methyl}piperazin-1-yl)-2-(1H-indol-4-yloxy)-N-[(4-{[3-(4-methylpiperazin-1-yl)propyl]amino}-3-nitrophenyl)sulfonyl]benzamide] | 2440 | 138.3
CN(C)CCCOc1ccc(S(=O)(=O)NC(=O)c2ccc(N3CCN(CC4=C(c5ccc(Cl)cc5)CC(C)(C)CC4)CC3)cc2Oc2ccc3[nH]ccc3c2)cc1[N+](=O)[O-] [Example 100, 4-(4-{[2-(4-chlorophenyl)-4,4-dimethylcyclohex-1-en-1-yl]methyl}piperazin-1-yl)-N-({4-[3-(dimethylamino)propoxy]-3-nitrophenyl}sulfonyl)-2-(1H-indol-5-yloxy)benzamide] | 2029 | 71.4
CC1(C)CCC(CN2CCN(c3ccc(C(=O)NS(=O)(=O)c4ccc(NCCCN5CCCC5)c([N+](=O)[O-])c4)c(Oc4cccc5[nH]ccc45)c3)CC2)=C(c2ccc(Cl)cc2)C1 [Example 102, 4-(4-{[2-(4-chlorophenyl)-4,4-dimethylcyclohex-1-en-1-yl]methyl}piperazin-1-yl)-2-(1H-indol-4-yloxy)-N-({3-nitro-4-[(3-pyrrolidin-1-ylpropyl)amino]phenyl}sulfonyl)benzamide] | 996 | 64.1
CN1CCC(Nc2ccc(S(=O)(=O)NC(=O)c3ccc(N4CCN(CC5=C(c6ccc(Cl)cc6)CC(C)(C)CC5)CC4)cc3Oc3cccc4[nH]ccc34)cc2[N+](=O)[O-])CC1 [Example 103, 4-(4-{[2-(4-chlorophenyl)-4,4-dimethylcyclohex-1-en-1-yl]methyl}piperazin-1-yl)-2-(1H-indol-4-yloxy)-N-({4-[(1-methylpiperidin-4-yl)amino]-3-nitrophenyl}sulfonyl)benzamide] | 2305 | 2096.1
CN1CCC(CNc2ccc(S(=O)(=O)NC(=O)c3ccc(N4CCN(CC5=C(c6ccc(Cl)cc6)CC(C)(C)CC5)CC4)cc3Oc3ccc4[nH]ccc4c3)cc2[N+](=O)[O-])CC1 [Example 104, 4-(4-{[2-(4-chlorophenyl)-4,4-dimethylcyclohex-1-en-1-yl]methyl}piperazin-1-yl)-2-(1H-indol-5-yloxy)-N-[(4-{[(1-methylpiperidin-4-yl)methyl]amino}-3-nitrophenyl)sulfonyl]benzamide] | >2392 | 637.7
CN1CCC(CNc2ccc(S(=O)(=O)NC(=O)c3ccc(N4CCN(CC5=C(c6ccc(Cl)cc6)CC(C)(C)CC5)CC4)cc3Oc3cccc4[nH]ccc34)cc2[N+](=O)[O-])CC1 [Example 105, 4-(4-{[2-(4-chlorophenyl)-4,4-dimethylcyclohex-1-en-1-yl]methyl}piperazin-1-yl)-2-(1H-indol-4-yloxy)-N-[(4-{[(1-methylpiperidin-4-yl)methyl]amino}-3-nitrophenyl)sulfonyl]benzamide] | 2262 | 62.7
CN1CCC(CNc2ccc(S(=O)(=O)NC(=O)c3ccc(N4CCN(CC5=C(c6ccc(Cl)cc6)CC(C)(C)CC5)CC4)cc3Oc3ccc4[nH]ccc4c3)cc2[N+](=O)[O-])(N(C)C)CC1 [Example 109, 4-(4-{[2-(4-chlorophenyl)-4,4-dimethylcyclohex-1-en-1-yl]methyl}piperazin-1-yl)-N-{[4-({[4-(dimethylamino)-1-methylpiperidin-4-yl]methyl}amino)-3-nitrophenyl]sulfonyl}-2-(1H-indol-5-yloxy)benzamide] | >1404 | >4099.4
